Experiments:
Assay in all cases: Phosphomimetic ProP-PD selection with NGS
DLG1 PDZ2 = molecular target: T1, DLG1 PDZ2 (Homo sapiens, UniProt Q12959); assay type: binding; conditions: mean of selections 1-3, bait DLG1 PDZ2
T1 construct: human DLG1 PDZ2 aa 311–407 in a modified pRSET vector 40; made in house; host or cells: E. coli BL21 Gold (DE3)
Procedure: (§1) Phage selections were carried out for four rounds following a protocol by Huang and Sidhu (Huang & Sidhu, 2011) with minor modifications. Non‐specific binding phage was removed by pre‐selections against immobilized GST throughout the selection. The selections against the (pre‐)phosphorylated wild‐type library were performed in 50 mM HEPES (pH 7.4) and 150 mM NaCl (HBS) following the same procedure after pre‐phosphorylation of the library.
(§2) • Immobilize proteins (15 μg in 100 μl PBS) in a 96‐well MaxiSorp microtiter plate (NUNC) overnight at 4°C. • Start a 2YT culture of E. coli Omnimax supplemented with 100 μg/ml tetracycline to retain the F pilus epitope. • Block the wells with 200 μl 0.5% BSA in PBS for 2 h at 4°C. • Precipitate naïve phage library (10^11 cfu per selection) or amplified phage pool from the previous round of selection by adding one‐fifth the volume of PEG/NaCl. • Incubate on ice for 10 min, and pellet precipitated phage by centrifugation at 5,300 g for 15 min. Resuspend the phage pellet in 100 μl PBS per selection. • Add 100 μl of phage solution to the GST‐coated pre‐selection wells and incubate for 1 h. • Transfer the phage solution to the immobilized target proteins and allow it to bind for 2 h at 8°C. • Wash the plate four times with 200 μl cold wash buffer (PBS, 0.05% Tween‐20). • Elute bound phage by incubation with 100 μl log phase (0.6–0.8 OD600) E. coli Omnimax for 30 min at 37°C with shaking (200 RPM). • Add 10^12 cfu/ml M13K07 helper phage for hyperinfection of the bacteria and incubate as above for 45 min. • Transfer the bacterial culture to 10 ml 2YT supplemented with 50 μg/ml carbenicillin, 25 μg/ml kanamycin, and 300 μM IPTG and incubate overnight at 37°C while shaking. • Perform phage pool ELISA to monitor the progress of the selection as described previously (Huang & Sidhu, 2011).
(§3) The naïve library and the enriched phage pools of the third day of selection were amplified and barcoded by PCR and analyzed by NGS as described elsewhere (McLaughlin & Sidhu, 2013; Ivarsson et al, 2014). The reads were demultiplexed using the barcode sequences and filtered by discarding sequences with a Phred quality score under 30. Sequences were mapped to the original library using Bowtie (Langmead et al, 2009) with two mismatches between reads and library sequence. Nucleotide mutations leading to amino acid substitutions were subsequently removed. Cutoff values of NGS counts were assigned for each pool. PWMs were generated based on the remaining peptides (aligned on the C‐termini) using WebLogo (Crooks et al, 2004).
(§4) However, there was no significant correlation of the actual read counts (selection “strength”) and the initial representation in the library, reflecting the strong selection during phage display (wt+mimetic: P‐value: 0.49, ρ = −0.08, mimetic only: P‐value: 0.069, ρ = −0.2, wt only: P‐value: 0.12, ρ = 0.17). Consequently, the amount of reads for each binder after phage display is not a function of the amount of input reads in the naïve library and no modeling based on the input library frequencies to score the interactions is necessary. To allow for comparison between replicate selections, we used the fraction of NGS reads within a certain set, instead of the absolute number of NGS reads, as the absolute numbers differ between different NGS batches.

Scribble PDZ1 = molecular target: T2, Scribble PDZ1 (Homo sapiens, UniProt Q14160); assay type: binding; conditions: for Mean fraction #NGS counts mimetic peptide / total count selection / Mean fraction #NGS counts wt peptide / total counts selection: bait Scribble PDZ1, mean of selections 1-3
T2 construct: human Scribble PDZ1 aa 719–829 in; made in house; host or cells: E. coli BL21 Gold (DE3)
Procedure: as §1, §2, §3, §4

Scribble PDZ3 = assay type: binding, human; conditions: bait Scribble PDZ3
Procedure: as §1, §2, §3, §4

[1] = mean of selections 1-3, phosphomimetic peptide
[2] = mean of selections 1-3, wild type peptide

T1 sequence (Q12959 311-407): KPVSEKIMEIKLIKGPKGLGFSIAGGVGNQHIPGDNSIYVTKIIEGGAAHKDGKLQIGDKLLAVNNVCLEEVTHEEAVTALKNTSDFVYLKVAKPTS
T2 sequence (Q14160 719-829): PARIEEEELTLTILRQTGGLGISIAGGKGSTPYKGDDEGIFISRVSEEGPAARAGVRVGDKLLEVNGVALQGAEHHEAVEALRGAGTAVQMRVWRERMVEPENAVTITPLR

DSSILSTVV
Mean fraction #NGS counts wt peptide / total counts selection (DLG1 PDZ2): 0.0001102

LKSGRDSTV
Mean fraction #NGS counts mimetic peptide / total count selection (DLG1 PDZ2): 0
Mean fraction #NGS counts wt peptide / total counts selection (DLG1 PDZ2): 0.0003449

EPTVHVTEL
Mean fraction #NGS counts mimetic peptide / total count selection (Scribble PDZ1): 0.0001138
Mean fraction #NGS counts mimetic peptide / total count selection (Scribble PDZ3; mean over selections 1-3): 1.586e-5

KEEPFLTWL
Mean fraction #NGS counts mimetic peptide / total count selection (Scribble PDZ3; mean over selections 1-3): 0.001054

IPLTRETTF
Mean fraction #NGS counts mimetic peptide / total count selection (Scribble PDZ3; mean over selections 1-3): 0.0004175

RPHTNETEL
Mean fraction #NGS counts mimetic peptide / total count selection (Scribble PDZ1): 0.008773
Mean fraction #NGS counts mimetic peptide / total count selection (Scribble PDZ3; mean over selections 1-3): 0.00587

PLHELETEL
Mean fraction #NGS counts mimetic peptide / total count selection (Scribble PDZ3; [1]): 0.00248

HEIKQSTAV
Mean fraction #NGS counts mimetic peptide / total count selection (DLG1 PDZ2; phosphomimetic peptide): 0

PLHELETSL
Mean fraction #NGS counts mimetic peptide / total count selection (Scribble PDZ1): 0
Mean fraction #NGS counts mimetic peptide / total count selection (Scribble PDZ3; mean over selections 1-3): 0

EIDLWETAL
Mean fraction #NGS counts mimetic peptide / total count selection (Scribble PDZ3; mean over selections 1-3): 0.0004512

SPTVHVTEL
Mean fraction #NGS counts wt peptide / total counts selection (Scribble PDZ1): 0.0001068
Mean fraction #NGS counts wt peptide / total counts selection (Scribble PDZ3; mean over selections 1-3): 5.538e-5

PIHSLEESL
Mean fraction #NGS counts mimetic peptide / total count selection (Scribble PDZ1): 0
Mean fraction #NGS counts mimetic peptide / total count selection (Scribble PDZ3; mean over selections 1-3): 7.932e-6

GLMKRRSEV
Mean fraction #NGS counts mimetic peptide / total count selection (DLG1 PDZ2): 6.06e-5

SATSVHTSV
Mean fraction #NGS counts wt peptide / total counts selection (DLG1 PDZ2; wild type peptide): 0.0005933

HEKVFTSAL
Mean fraction #NGS counts wt peptide / total counts selection (Scribble PDZ1): 0
Mean fraction #NGS counts wt peptide / total counts selection (Scribble PDZ3; mean over selections 1-3): 0.0001136

ISYRRESAI
Mean fraction #NGS counts mimetic peptide / total count selection (DLG1 PDZ2): 0
Mean fraction #NGS counts wt peptide / total counts selection (DLG1 PDZ2): 1.436e-5
Mean fraction #NGS counts wt peptide / total counts selection (Scribble PDZ3; mean over selections 1-3): 0.0002548

HFESLESEV
Mean fraction #NGS counts mimetic peptide / total count selection (DLG1 PDZ2): 0

NSTNMESSL
Mean fraction #NGS counts wt peptide / total counts selection (Scribble PDZ3; [2]): 0

SRKRTESFL
Mean fraction #NGS counts mimetic peptide / total count selection (Scribble PDZ3; mean over selections 1-3): 0.0004518

GSGGRQSVV
Mean fraction #NGS counts wt peptide / total counts selection (DLG1 PDZ2; wild type peptide): 0.003121

PIHELETEL
Mean fraction #NGS counts mimetic peptide / total count selection (Scribble PDZ3; [1]): 0.0005099

LRLQSETEV
Mean fraction #NGS counts mimetic peptide / total count selection (DLG1 PDZ2): 7.62e-5

QKFRAETAL
Mean fraction #NGS counts mimetic peptide / total count selection (Scribble PDZ1): 0.002401
Mean fraction #NGS counts mimetic peptide / total count selection (Scribble PDZ3; mean over selections 1-3): 0.001978

VTEERETNI
Mean fraction #NGS counts mimetic peptide / total count selection (Scribble PDZ3; mean over selections 1-3): 4.038e-6

LRLQSETSV
Mean fraction #NGS counts wt peptide / total counts selection (DLG1 PDZ2): 3.877e-6

SQSRMETNM
Mean fraction #NGS counts mimetic peptide / total count selection (Scribble PDZ3; mean over selections 1-3): 0.0002587

KYVDAETSL
Mean fraction #NGS counts wt peptide / total counts selection (Scribble PDZ3; [2]): 0.0001259

VKRLLESVF
Mean fraction #NGS counts mimetic peptide / total count selection (Scribble PDZ1): 0.005379

TMFLRETEL‐coo‐
occurrence in NGS of the selection relative to wild‐type counterpart (Scribble PDZ1; phage-displayed peptide, phosphomimetic ProP‐PD selection against Scribble PDZ1): three times more

RPLRREEEI
Mean fraction #NGS counts mimetic peptide / total count selection (Scribble PDZ3; mean over selections 1-3): 0

MKRLTSTRL
Mean fraction #NGS counts wt peptide / total counts selection (Scribble PDZ1): 2.8701e-5
Mean fraction #NGS counts wt peptide / total counts selection (Scribble PDZ3; mean over selections 1-3): 3.6122e-5

IEFTQTEQF
Mean fraction #NGS counts mimetic peptide / total count selection (DLG1 PDZ2): 0.001455

PLHSLETSL
Mean fraction #NGS counts wt peptide / total counts selection (Scribble PDZ1): 0.0001571
Mean fraction #NGS counts wt peptide / total counts selection (Scribble PDZ3; [2]): 0.0002079
Mean fraction #NGS counts wt peptide / total counts selection (Scribble PDZ3; mean over selections 1-3): 0.0002261

PLHSLETEL
Mean fraction #NGS counts mimetic peptide / total count selection (Scribble PDZ1): 0.01704
Mean fraction #NGS counts mimetic peptide / total count selection (Scribble PDZ3; mean over selections 1-3): 0.01661

PTHVLQTQI
Mean fraction #NGS counts wt peptide / total counts selection (Scribble PDZ1): 0

LSIEKETKL
Mean fraction #NGS counts wt peptide / total counts selection (Scribble PDZ3; mean over selections 1-3): 0.01518

LAPNIIEQL
Mean fraction #NGS counts mimetic peptide / total count selection (Scribble PDZ1): 2.8202e-5

PIHSLETSL
Mean fraction #NGS counts wt peptide / total counts selection (Scribble PDZ1): 0.0009794
Mean fraction #NGS counts wt peptide / total counts selection (Scribble PDZ3; [2]): 0.001163
Mean fraction #NGS counts wt peptide / total counts selection (Scribble PDZ3; mean over selections 1-3): 0.001163

KLSEIESDV
Mean fraction #NGS counts mimetic peptide / total count selection (DLG1 PDZ2): 0
Mean fraction #NGS counts mimetic peptide / total count selection (Scribble PDZ3; mean over selections 1-3): 6.057e-6

LAPNIISQL
Mean fraction #NGS counts wt peptide / total counts selection (Scribble PDZ1): 0.000119

GLMKRRSSV
Mean fraction #NGS counts wt peptide / total counts selection (DLG1 PDZ2): 0

KSEPFLTWL
Mean fraction #NGS counts wt peptide / total counts selection (Scribble PDZ3; mean over selections 1-3): 0.002017

IEWLAFSVL
Mean fraction #NGS counts mimetic peptide / total count selection (Scribble PDZ1): 4.38e-5

RSSMKPGFV
Mean fraction #NGS counts wt peptide / total counts selection (DLG1 PDZ2; wild type peptide): 0.02056

VRSKLPSNL
Mean fraction #NGS counts wt peptide / total counts selection (Scribble PDZ1): 4.38e-5

MRLQEETSV
Mean fraction #NGS counts mimetic peptide / total count selection (DLG1 PDZ2): 0.0002419

SIDLWETAL
Mean fraction #NGS counts wt peptide / total counts selection (Scribble PDZ3; mean over selections 1-3): 0.004105

KYVDAETEL
Mean fraction #NGS counts mimetic peptide / total count selection (Scribble PDZ3; [1]): 0.0004194

ISFTQTSQF
Mean fraction #NGS counts wt peptide / total counts selection (DLG1 PDZ2): 6.749e-6

RATEWYSPY
Mean fraction #NGS counts mimetic peptide / total count selection (DLG1 PDZ2): 0

HEIKQETAV
Mean fraction #NGS counts mimetic peptide / total count selection (DLG1 PDZ2): 0.0002182

MRLQEETEV
Mean fraction #NGS counts mimetic peptide / total count selection (DLG1 PDZ2): 0.0001421

NSTNMESEL
Mean fraction #NGS counts mimetic peptide / total count selection (Scribble PDZ3; [1]): 0.001938

GEGGRQSVV
Mean fraction #NGS counts mimetic peptide / total count selection (DLG1 PDZ2; phosphomimetic peptide): 9.343e-5

ERLEYEETL
Mean fraction #NGS counts mimetic peptide / total count selection (Scribble PDZ3; mean over selections 1-3): 0

RSEMKPGFV
Mean fraction #NGS counts mimetic peptide / total count selection (DLG1 PDZ2; phosphomimetic peptide): 0

KKRMVEEPL
Mean fraction #NGS counts mimetic peptide / total count selection (Scribble PDZ3; mean over selections 1-3): 0

VTSERETNI
Mean fraction #NGS counts wt peptide / total counts selection (Scribble PDZ3; mean over selections 1-3): 0.001424

VRKLPETTL
Mean fraction #NGS counts mimetic peptide / total count selection (Scribble PDZ3; mean over selections 1-3): 0.002417

ISYRREEAI
Mean fraction #NGS counts mimetic peptide / total count selection (Scribble PDZ3; mean over selections 1-3): 0

PEHVLQTQI
Mean fraction #NGS counts mimetic peptide / total count selection (Scribble PDZ1): 0.0001068

ERLEYETTL
Mean fraction #NGS counts wt peptide / total counts selection (Scribble PDZ3; [2]): 0.0004529
Mean fraction #NGS counts wt peptide / total counts selection (Scribble PDZ3; mean over selections 1-3): 0.0004529

ERLEYETEL
Mean fraction #NGS counts mimetic peptide / total count selection (Scribble PDZ3; [1]): 3.548e-5

SRKRTSSFL
Mean fraction #NGS counts wt peptide / total counts selection (Scribble PDZ3; mean over selections 1-3): 0

KKRMVESPL
Mean fraction #NGS counts wt peptide / total counts selection (Scribble PDZ3; mean over selections 1-3): 0.000138

ISWLAFSVL
Mean fraction #NGS counts wt peptide / total counts selection (Scribble PDZ1): 0

LSIEKEEKL
Mean fraction #NGS counts mimetic peptide / total count selection (Scribble PDZ3; mean over selections 1-3): 3.894e-6

RPLRRESEI
Mean fraction #NGS counts mimetic peptide / total count selection (DLG1 PDZ2): 0
Mean fraction #NGS counts wt peptide / total counts selection (DLG1 PDZ2): 3.748e-5
Mean fraction #NGS counts wt peptide / total counts selection (Scribble PDZ3; mean over selections 1-3): 8.219e-5

RATSWYSPY
Mean fraction #NGS counts wt peptide / total counts selection (DLG1 PDZ2): 0.002312

IPLTRTTTF
Mean fraction #NGS counts wt peptide / total counts selection (Scribble PDZ3; mean over selections 1-3): 0

HFSSLESEV
Mean fraction #NGS counts wt peptide / total counts selection (DLG1 PDZ2): 5.084e-5

VREKLPSNL
Mean fraction #NGS counts mimetic peptide / total count selection (Scribble PDZ1): 0

VKRLLSSVF
Mean fraction #NGS counts wt peptide / total counts selection (Scribble PDZ1): 0

DSEILETVV
Mean fraction #NGS counts mimetic peptide / total count selection (DLG1 PDZ2): 0
